{
  "source": "paper PMC3720812",
  "about": "“YjcC, a c-di-GMP Phosphodiesterase Protein, Regulates the Oxidative Stress Response and Virulence of Klebsiella pneumoniae CG43” (PLoS ONE, 2013)",
  "key": {"YjcC-EAL domain": {"molecular_target": "T1, YjcC-EAL domain (Klebsiella pneumoniae, UniProt A6TGY2)", "T1 construct": "EAL domain only (C-terminal)", "T1 sequence (A6TGY2 entry or part of it)": "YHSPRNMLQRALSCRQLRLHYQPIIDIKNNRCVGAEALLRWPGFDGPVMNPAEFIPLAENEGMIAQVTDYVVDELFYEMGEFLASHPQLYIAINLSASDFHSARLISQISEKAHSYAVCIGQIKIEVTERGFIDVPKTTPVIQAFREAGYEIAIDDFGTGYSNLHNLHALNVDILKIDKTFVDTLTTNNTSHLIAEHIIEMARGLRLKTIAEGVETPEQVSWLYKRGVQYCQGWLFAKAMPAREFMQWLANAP", "assay": "release of p-nitrophenol at […] nm", "type": "biochemical", "settings": "chromogenic model substrate; activity only in figure"}, "MrkJ": {"molecular_target": "T2, MrkJ (Klebsiella pneumoniae, UniProt G3FT02)", "T2 construct": "recombinant from pET30b-mrkJ, E. coli BL21(DE3), purified", "T2 sequence (G3FT02 entry or part of it)": "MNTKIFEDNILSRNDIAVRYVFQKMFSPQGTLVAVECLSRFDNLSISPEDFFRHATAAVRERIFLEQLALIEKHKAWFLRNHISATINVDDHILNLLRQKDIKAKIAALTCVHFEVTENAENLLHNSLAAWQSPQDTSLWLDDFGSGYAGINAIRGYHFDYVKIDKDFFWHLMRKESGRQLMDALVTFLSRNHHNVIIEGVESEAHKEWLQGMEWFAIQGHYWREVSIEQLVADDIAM", "assay": "release of p-nitrophenol at […] nm", "type": "biochemical", "settings": "positive control enzyme; activity only in figure"}},
  "data": [
    {"smiles": "O=[N+]([O-])c1ccc(OP(=O)(O)Oc2ccc([N+](=O)[O-])cc2)cc1", "note": "[bis(p-nitrophenyl) phosphate]", "values": [
      {"measurement": "specific PDE activity", "setting": "YjcC-EAL domain", "result": "the purified EAL domain protein exhibits PDE activity towards pNpp"},
      {"measurement": "specific PDE activity", "setting": "MrkJ", "result": "This activity is lower than the level of the recombinant MrkJ"}
    ]}
  ]
}
